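Five compound concentrations were applied to cells in 96-well plates for 48 hours; endpoints were derived by simple linear interpolation of the resulting dose-response curve. GI50 is the concentration that inhibits growth by half.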 Active and inactive are the calls of the source. Rule as the data show it: active = GI50 up to about 1.1 µM and inactive = higher. Bounds are passed on as bounds.

Test systems include BT-549; CAKI-1; CCRF-CEM; HT-29; IGROV-1; KM12; M14; MDA-MB-231; Malme-3M; NCI-H522; OVCAR-3; OVCAR-4; RXF 393; SK-MEL-2; SK-MEL-5; SN12C; SNB-75; T47D; TK-10; UACC-62.
Common to all, as to assay: NCI-60 cell line screen, 48 h

With `Cc1cc(C)n(CC(Cn2nc(C)cc2C)=C(/C(Cl)=C(/Cl)Nc2ccc([N+](=O)[O-])cc2)[N+](=O)[O-])n1`, the GI50 in the experiment on BT-549 was 3.33 µM (inactive); in the experiment on CAKI-1 it was 1.81 µM (inactive); with CCRF-CEM, 0.558 µM (active); with HT-29, 3.28 µM (inactive); in the experiment on IGROV-1, 2.62 µM (inactive); with KM12, 1.81 µM (inactive). For the same molecule, the GI50 in the experiment with M14 is 4.37 µM (inactive); with MDA-MB-231, 6.05 µM (inactive); with Malme-3M, 3.61 µM (inactive); in the experiment with NCI-H522, 2.09 µM (inactive); in the experiment on OVCAR-3 it was 4 µM (inactive); in the experiment on OVCAR-4, 1.02 µM (active). Besides, the GI50 was 3.59 µM (inactive) in the experiment with RXF 393; 3.05 µM (inactive) in the experiment with SK-MEL-2; 2.29 µM (inactive) in the experiment with SK-MEL-5; 3.82 µM (inactive) with SN12C; 4.67 µM (inactive) in the experiment on SNB-75; 3.33 µM (inactive) in the experiment with T47D. Besides, the figures for the GI50 in the experiment on TK-10 and in the experiment with UACC-62 were 3.78 µM (inactive) and 3.9 µM (inactive), respectively.
As for `Cc1cc2nc(O)c(C(C)C(=O)c3ccc(Cl)cc3)nc2cc1C` (stereo not given), the GI50 in the experiment on BT-549 is 54.5 µM (inactive); with CAKI-1 it was 81.7 µM (inactive); in the experiment on CCRF-CEM, 26.7 µM (inactive); with HT-29, 22.1 µM (inactive); in the experiment on IGROV-1, 61.9 µM (inactive); with KM12, 29.8 µM (inactive). Also, the GI50 with M14 is 45.6 µM (inactive); in the experiment with MDA-MB-231 it was 36.7 µM (inactive); with Malme-3M, 71.6 µM (inactive); with NCI-H522, 31.6 µM (inactive); in the experiment with OVCAR-3, 49.1 µM (inactive); with OVCAR-4 it was 31.6 µM (inactive). For the same molecule, the GI50 in the experiment on RXF 393 is 41.3 µM (inactive); with SK-MEL-2, > 100 µM (inactive); with SK-MEL-5 it was 38.1 µM (inactive); with SN12C it was 50.7 µM (inactive); in the experiment on SNB-75 it was 35.4 µM (inactive); in the experiment on T47D, 32.3 µM (inactive). The GI50 with TK-10 was 27 µM (inactive); in the experiment on UACC-62 it was 46.9 µM (inactive).
In the case of `O=[N+]([O-])c1ccc(/C=N/n2c(CO)nc3ccccc32)o1`, the GI50 in the experiment with BT-549 was 13.6 µM (inactive); in the experiment with CAKI-1, 9.68 µM (inactive); with CCRF-CEM, 3.78 µM (inactive); with HT-29 it was 2.8 µM (inactive); in the experiment on IGROV-1 it was 0.993 µM (active); in the experiment with KM12, 3.11 µM (inactive). For the same molecule, the GI50 in the experiment on M14 was 4.17 µM (inactive); with MDA-MB-231 it was 5.36 µM (inactive); with Malme-3M, 2.16 µM (inactive); with NCI-H522 it was 2.28 µM (inactive); in the experiment on OVCAR-3, 2.22 µM (inactive); in the experiment on OVCAR-4 it was 7.1 µM (inactive). Also, the GI50 in the experiment on RXF 393 was 5.07 µM (inactive); with SK-MEL-2, 4.67 µM (inactive); in the experiment on SK-MEL-5 it was 2.14 µM (inactive); with SN12C, 5.35 µM (inactive); with SNB-75, 24.6 µM (inactive); in the experiment with T47D, 20.5 µM (inactive). For the same molecule, the GI50 in the experiment on TK-10 is 6.55 µM (inactive); with UACC-62 it was 7.52 µM (inactive).
In the case of `CCc1cn(C2CC(CO)C(CO)S2)c(=O)[nH]c1=O` (stereo not given), the GI50 in the experiment on BT-549, in the experiment on CAKI-1, in the experiment on CCRF-CEM, in the experiment on HT-29, in the experiment on IGROV-1 and in the experiment with KM12 was > 100 µM (inactive) throughout. In addition, the GI50 in the experiment on M14, in the experiment with MDA-MB-231, in the experiment on Malme-3M, in the experiment on NCI-H522, in the experiment on OVCAR-3 and with OVCAR-4 was > 100 µM (inactive) in each case. For the same molecule, the GI50 in the experiment with RXF 393, in the experiment on SK-MEL-2, in the experiment with SK-MEL-5, in the experiment with SN12C, with SNB-75 and in the experiment with T47D was > 100 µM (inactive) throughout. The GI50 with TK-10 and in the experiment with UACC-62 was > 100 µM (inactive) each time.

For the origin of these results see ChEMBL document CHEMBL1201862, “PubChem BioAssay data set” (2004).
